# Source: patent publication US20230406821A1, “STRIGOLACTONE DERIVATIVES” (Plant Response, Inc., priority 2017, published 2023)
# System: Zea mays Dekalb Hybrid DKC68-26RIB
# Assay: Stomatal conductance (LI-6400XT) of sprayed maize plants
# Format: in vivo
# Conditions: EC formulation plus 1% Crop Oil Concentrate, foliar spray 2 grams/acre, measured next morning (FIG. 7)
# Description: FIG. 7 is a boxplot representing the distribution of stomatal conductance (mmol/m^2/s) measurements taken via LI-6400XT on Zea mays plants treated with EC formulation blank and Crop Oil Concentrate (control; EC) or strigolactone molecule MBS-127, EC formulation blank and Crop Oil Concentrate (MBS-127+EC). […] Letters define significant classes with P<0.05. Points show observations falling outside of the whiskers and have been jittered along the x-axis to avoid overlap.
# Water transport is closely intertwined with many vital plant processes, including photosynthesis, translocation, mineral nutrition, growth, and plays a critical role in defining the yield potential of a crop field (Azizian, A., & Sepaskhah, A. R. “Maize response to water, salinity and nitrogen levels: yield-water relation, water-use efficiency and water uptake reduction function,” International Journal of Plant Production (2014) Vol. 8(2), pp. 183-214). The compounds of formulas described herein induce increased leaf conductance in the leaves of intact Z. mays plants (FIG. 7).
# In this experiment maize (Zea mays Dekalb Hybrid DKC68-26RIB) plants were grown in a greenhouse in one-gallon pots filled with Sunshine #2 soil-less growing mix. […] Leaves were acclimated within the LI6400XTR sensor head until gas exchange measurements had stabilized for conductance and then the conductance for that leaf determined.
smiles,measurement,value
"COC(=O)/C=C/OC1C=C(C)C(=O)O1 (stereo not shown) [MBS-127, 3-(4-Methyl-5-oxo-2,5-dihydro-furan-2-yloxy)-acrylic acid methyl ester]",increase in stomatal conductance compared to the control group,60%
